The values that follow come from PubChem BioAssay AID2305 (GlaxoSmithKline (GSK), 2010).

The test concerns P. falciparum 3D7 growth, pLDH absorbance. As to the kind of experiment: P. falciparum 3D7 growth inhibition, dose response, strain 3D7 (AID 2305).

As a reminder, the IC50 is the concentration that gives 50% inhibition. With `CS(=O)(=O)c1cccc2sc(N3CCN(C(=O)c4ccc([N+](=O)[O-])o4)CC3)nc12`, the IC50 turned out to be 1240 nM.
Take `CCCc1cc(OC)c(CC2c3cc(O)c(Cl)cc3C(c3ccccc3)CN2C)cc1OC` (configuration not stated): the IC50 was found to be 430 nM.
For `CN1CCC(N(C)C(=O)C=Cc2cn(-c3ccccc3)nc2-c2cc3ccccc3o2)CC1`, the 50% inhibitory concentration (IC50) worked out at 1340 nM.
On to `CC(C)Cc1ccc(N2CCN(CCCCNC(=O)c3ccc(NC(=O)c4cc(C(F)(F)F)cc(C(F)(F)F)c4)cc3)CC2)cc1`, for which the IC50 came to 180 nM.
`O=[N+]([O-])c1ccccc1C=NNc1ccnc2ccc(C(F)(F)F)cc12` yielded an IC50 of 710 nM.
Turning to `CC1(C)N=C(NC(=O)c2ccc([N+](=O)[O-])cc2)N=C(N)N1OCc1ccc2ccccc2c1`, the IC50 was 10 nM.
Regarding `c1ccc(CCNc2nc(NCC(c3ccccc3)c3ccccc3)c3[nH]cnc3n2)cc1`, the IC50 came out at 620 nM.
Molecule `Cc1cc(N[C@@H](Cc2ccccc2)C(=O)Nc2ccccc2)nc(NCCc2cccnc2)n1` had an IC50 of 1340 nM.
In turn, `Cc1cc(Cc2ccc(S(=O)(=O)c3cc4c(cc3O)CCN(C)CC4)cc2)ccc1Cl` had a half-inhibitory concentration (IC50) of 910 nM.
On to `Cc1[nH]c(C)c(-c2ccc(Sc3ccc(Cl)cc3)cc2)c(=O)c1Br`, for which the concentration for half-maximal inhibition (IC50) is 140 nM.
With `COc1ccc(-c2cc(C(=O)Nc3ccc4nc(-c5ccccc5)[nH]c4c3)[nH]n2)cc1`, the 50% inhibitory concentration (IC50) was 700 nM.
For `COCCOc1cccc(CN2CCC(c3cc4nc(C)cc(C(F)(F)F)n4n3)C2)c1` (configuration not stated), the half-inhibitory concentration (IC50) turned out to be 1330 nM.
`O=C(Nc1cccc(-c2ccc(-c3nc4ccccc4[nH]3)cc2)c1)Nc1ccc(F)c(F)c1F` showed an IC50 of 240 nM.
For the molecule `CC(NC(=O)c1ccc(O)c(-c2ccc(Cl)c(Cl)c2)c1)C(=O)NC1CCCCC1` (configuration not stated), the half-maximal inhibitory concentration (IC50) was 840 nM.
The result for `CN(C)[C@@H]1C(=O)C(C(N)=O)=C(O)[C@@]2(O)C(=O)C3=C(O)c4c(O)ccc(C#Cc5ccccn5)c4C[C@H]3C[C@@H]12` reads 760 nM.
Molecule `CC(CCCCCC(=O)Nc1ccc(CC(C)NCCc2cccc(Cl)c2)cc1)NCCc1cccc(Cl)c1` (configuration not stated) registered a half-inhibitory concentration (IC50) of 950 nM.
Take `CN1CCN(CC(=O)Nc2cccc(-c3ccc(-c4nc5ccc(F)cc5[nH]4)s3)c2)CC1`: the IC50 came to 680 nM.
In the case of `Cc1nc2nc(N)nc(N)c2c(C)c1Cc1cccc(C(F)(F)F)c1`, the IC50 came to 1290 nM.
As to `CCOc1cc(C(=O)NCC2CCN(CC3CCCCC3)CC2)ccc1-c1nc2ccc(Cl)cc2[nH]1`, the IC50 stood at 560 nM.
Molecule `COC(=O)[C@@H](NC(=O)[C@H](Cc1ccc(OC)c(OC)c1)Nc1ccc(C#N)c2ccccc12)c1ccc(O)cc1` displayed a 50% inhibitory concentration (IC50) of 750 nM.
In turn, `O=C(NCCCCN1CCC(c2ccc3c(c2OCCO)CCCC3)CC1)c1ccc(-c2ccc(C(F)(F)F)cc2)cc1` had an IC50 of 860 nM.
In turn, `CN1CCC(C(=O)Nc2ccc(-c3cccc(-c4nc5ccc(F)cc5[nH]4)c3)cc2)CC1` displayed an IC50 of 790 nM.
`COc1ccccc1N(C)CCNc1cc(C)nc(Nc2ccccc2)n1` displayed an IC50 of 1070 nM.
In the case of `CCOC(=O)c1cnc2c(OC)cc(OC)c(Cl)c2c1Nc1ccccc1`, the IC50 is 870 nM.
The molecule `Cc1ccc(Oc2ccccc2NC(=O)CCc2nc3ccccc3c(=O)[nH]2)cc1` came in with a half-inhibitory concentration (IC50) of 830 nM.
The value for `COC(=O)c1ccc(CC(C)NCC(O)c2cccc(I)c2)cc1` (configuration not stated) was 1320 nM; that for `CC(C)CCNC(=O)[C@@H]1[C@H]2C(=O)N(C3CCCCC3)C(=O)[C@H]2[C@H]2C=C[C@@H]3C(c4ccc(C(C)(C)C)cc4)=NO[C@@H]3N21` was 790 nM; that for `O=S1N=C(NCCCN(Cc2cccs2)c2ccccn2)C(NCc2ccccc2)=N1` (configuration not stated) was 310 nM.
In turn, `CC1Cc2ccccc2N1CC(=O)Nc1cc(C(F)(F)F)ccc1-n1cncn1` (configuration not stated) displayed an IC50 of 320 nM.
The result for `CC(=O)Nc1ccc(OCCN(Cc2ccccc2C(F)(F)F)c2ccc(C#N)c(C(F)(F)F)c2)c(Cl)c1` reads 620 nM; that for `Cc1cccc(Nc2c(-c3cc(Br)ccc3O)nc3ncccn23)c1`, 210 nM.
The molecule `FC(F)(F)c1ccc2nc(-c3cccc(-c4cccc(CNCCN5CCNCC5)c4)c3)[nH]c2c1` registered an IC50 of 940 nM.
Molecule `CC1N=C(N)N=C(N)N1OCc1ccccc1` (configuration not stated) came in with a concentration for half-maximal inhibition (IC50) of 30 nM.
The result for `CN1CCCC(CN2CCN(Cc3ccc(-c4ccc(-c5nc6ccc(F)cc6[nH]5)s4)cc3)CC2)C1` (configuration not stated) reads 130 nM; that for `Cc1ccc2c(NN=Cc3ccc(N(C)C)cc3)cc(C)nc2c1`, 880 nM.
In turn, `C[C@@H]([C@@H](CCCCc1ccccc1)C(=O)N[C@H](C(=O)Nc1cccnc1)C(C)(C)C)N(O)C=O` showed an IC50 of 930 nM.
In turn, `Oc1ccc(-c2cncc(NCc3ccc(F)c(F)c3)c2)cc1` yielded an IC50 of 770 nM.
Consider `O=C(Nc1ccncc1)Nc1ccc2c(c1)CCN(C1CCC1)CC2`, for which the IC50 turned out to be 1130 nM.
In turn, `Cc1cc(-c2ccc(CN3Cc4ccccc4C3)cc2)ccc1S(=O)(=O)NCCN1CCCC1` yielded an IC50 of 970 nM.
The value for `CCN(CCO)CCc1cccc(Nc2nccc(-c3c(-c4ccc(NC(=O)N(CC)CC)cc4)nn4ccccc34)n2)c1` was 1110 nM.
`CN(C)CCC1CCCc2ccc(NC(=O)Nc3ccc(-c4ccncc4)c4ccccc34)cc21` (configuration not stated): the half-maximal inhibitory concentration (IC50) turned out to be 1070 nM.
`CCN1CCC(N(Cc2ccc(-c3ccc(C(F)(F)F)cc3)cc2)C(=O)Cn2c(CCc3cccc(F)c3F)cc(=O)c3ccccc32)C1` (configuration not stated) displayed a concentration for half-maximal inhibition (IC50) of 1010 nM.
Regarding `O=C(NCCN1CCCC1)c1cccc(-c2ccc(-c3nc4ccc(F)cc4[nH]3)s2)c1`, the IC50 is 1530 nM.
The result for `CCn1c2ccccc2c2cc(C=NNc3cc(C)nc4ccccc34)ccc21` reads 310 nM; that for `Cc1cc(N)nc2ccc(-c3cccc(CN)c3)cc12`, 710 nM; that for `Cc1ccc(-c2cccc3c(NC(=O)Nc4ccc5nccc(N6CCN(C)CC6)c5c4)cccc23)cn1`, 350 nM.
For `O=C(Cc1ccccc1)NC(CCN1CCC(NC(=O)c2ccc(Cl)cc2)CC1)c1ccc(Cl)c(Cl)c1` (configuration not stated), the concentration for half-maximal inhibition (IC50) was 920 nM.
In turn, `Cc1cccc2[nH]c(-c3ccc(-c4ccc(NC(=O)c5cncn5C)cc4)s3)nc12` gave a half-maximal inhibitory concentration (IC50) of 670 nM.
In turn, `Cc1ccc2c(C3=CCN(CCCCC4(C)C(=O)Nc5c(F)cccc54)CC3)c(C)[nH]c2c1` (configuration not stated) showed an IC50 of 270 nM.
In turn, `COc1cccc(-c2cc(C(F)(F)F)n3ncc(C(=O)Nc4cc(Cl)ccc4O)c3n2)c1` registered an IC50 of 200 nM.
`CN(C)CCNC(=O)N1CCCN(c2ncnc3cc(-c4ccc(Cl)cc4)sc23)CC1`: the half-maximal inhibitory concentration (IC50) was found to be 1020 nM.
`CN1CCc2ccc(NC(=O)Nc3ccc(-c4ccccc4)cc3)cc2C1` returned an IC50 of 510 nM.
The molecule `CCOC(=O)c1c(CN2CCCC2)n(-c2ccccc2)c2cc(Br)c(O)cc12` came in with an IC50 of 1010 nM.
The result for `COc1ccccc1C1CCN(C2CCC(NC(=O)/C=C/c3ccc(F)c(F)c3)CC2)CC1` (configuration not stated) reads 1320 nM.
For the molecule `COc1ccc(C(=O)Nc2ccc3nc(N4CCCCC4)cc(C)c3c2)cc1[N+](=O)[O-]`, the IC50 was 780 nM.
Molecule `Nc1nc2ccc(S(=O)(=O)Nc3ccc(C(=O)N[C@@H](CCC(=O)O)C(=O)O)c(F)c3)cc2c(=O)[nH]1` returned an IC50 of 820 nM.
For `Cc1cc(N)nc2ccc(-c3ccc(CN)cc3)cc12`, the concentration for half-maximal inhibition (IC50) was found to be 620 nM.
Turning to `COc1cccc(C(=O)OC2=C3CCC(=O)C3(C)CCC2=O)c1` (configuration not stated), the 50% inhibitory concentration (IC50) was 80 nM.
The result for `CC(CN1CCN(C)CC1)C(=O)Nc1ccc(-c2ccc(-c3nc4ccc(C(F)(F)F)cc4[nH]3)cc2)cc1` (configuration not stated) reads 410 nM; that for `COc1cccc(CNC(=O)c2cnc(N3CCN(c4ccncc4)CC3)c(Cl)c2)c1`, 1150 nM.
`CC(C)COc1cc(C(=O)Nc2cnc3ccccc3c2)ccc1[N+](=O)[O-]` yielded an IC50 of 780 nM.
`CCCCCCN(CCCCCC)CCCCNc1c2ccc(Cl)cc2nc2ccc(OC)cc12`: the IC50 was found to be 540 nM.
As for `CC(Nc1nc(Nc2ccc(F)cc2)nc(SCC(N)=O)n1)c1ccccc1` (configuration not stated), the IC50 was 500 nM.
Molecule `Cc1cc(NN=CC=Cc2ccccc2)c2ccc(F)cc2n1` showed an IC50 of 590 nM.
`Oc1ccc2ncnc(Nc3ccc(OCc4cccc(F)c4)c(Cl)c3)c2c1` came in with an IC50 of 990 nM.
In turn, `COc1cc(C=C(C2=NC(=O)CS2)c2nc3cccnc3n2C)ccc1O` displayed an IC50 of 1000 nM.
Regarding `CN(C)CCOc1ccc(-c2cc(-c3ccncc3)c(-c3ccc(Cl)c(O)c3)[nH]2)cc1`, the IC50 is 220 nM.
The result for `Cc1nc(-c2nc(NCc3ccncc3)ncc2-c2ccsc2)sc1C` reads 990 nM; that for `CS(=O)(=O)CCNCc1cccc(-c2ccc3c(Nc4ccc(Oc5ccccc5)cc4)ccnc3c2)c1`, 690 nM.
Regarding `CCCCNC(=O)[C@H](Cc1ccccc1)NC(=O)c1ccc(O)c(-c2ccc(Cl)c(Cl)c2)c1`, the half-maximal inhibitory concentration (IC50) stood at 530 nM.
`CC[C@H]1CN2CC[C@H]1C[C@H]2[C@H](O)c1cc(-c2ccccc2F)nc2ccc(OC)cc12`: the IC50 was 80 nM.
`O=C(Nc1cc(C(F)(F)F)cc(C(F)(F)F)c1)N1CCC(CN2CCC(c3c[nH]c4ccccc34)CC2)CC1` showed an IC50 of 190 nM.
Regarding `O=C(CSc1nc(-c2ccccc2Cl)ns1)Nc1cccc(Cl)c1`, the 50% inhibitory concentration (IC50) came to 790 nM.
Molecule `O=C(NC1CCN(Cc2ccccc2)CC1)c1ccc(-c2nc3cc(Cl)c(Cl)cc3[nH]2)s1` registered an IC50 of 310 nM.
`Cc1cc2c(/C=C/C(=O)NC3CCC(CCN4CCc5ccc(C#N)cc5CC4)CC3)cccc2[nH]1` (configuration not stated) yielded an IC50 of 840 nM.
The result for `CCCCCCCCNCc1c(O)ccc2ccccc12` reads 740 nM; that for `O=C1COC2(CN1CC1CCN(Cc3ccc(O)c(Cl)c3)C1)c1ccccc1-c1ccccc12` (configuration not stated), 1060 nM; that for `CCc1cc(COc2ccc(CNCCC(C)C)cc2I)c(OCc2ccccc2)c(COc2ccc(CNCCC(C)C)cc2I)c1`, 1110 nM.
`CC(Cl)=CCc1c(C)[nH]c2c(ccc3ccccc32)c1=O` displayed an IC50 of 200 nM.
Take `c1ccc(COc2ccccc2COc2ccccc2-c2ccc3cccnc3n2)cc1`: the IC50 amounted to 920 nM.
The result for `Cc1cc(NCCC(=O)NCCc2ccccc2)nc(NCCc2ccc(F)cc2)n1` reads 1080 nM.
For `Cc1nc(N)nc(N)c1-c1cccc(Cl)c1`, the IC50 was determined as 1170 nM.
For `COc1cc2nccc(Nc3ccc(NC(=O)c4ccc(C)cc4)c(O)c3)c2cc1OC`, the IC50 turned out to be 170 nM.
The result for `O=C(NCc1ccccc1)NC(CCCN1CCC(Oc2cccc(Cl)c2)CC1)c1ccc(Cl)c(Cl)c1` (configuration not stated) reads 860 nM.
The value for `Nc1c2ccccc2nc2cc(C(F)(F)F)ccc12` was 840 nM; that for `COc1ccc(CN2CCC(N3CC(c4ccccc4)(c4ccccc4)OCC3=O)C2)c(O)c1` (configuration not stated) was 930 nM.
`N#Cc1ccc(NC(=O)c2ccc(Cc3ccc4c(c3)CCN(C3CCC3)CC4)cn2)cc1` registered a half-inhibitory concentration (IC50) of 1120 nM.
